Data set [1] concerns stimulated human monocytic THP-1 cells. Nature of the data set: Viability of LPS plus IFN-γ stimulated THP-1 cells (MTT assay). The note with it: 1–100 μM, added 15 min before LPS plus IFN-γ, 24 h. The data set is classed as cell-based. Here is the method: (§1) The MTT assay was performed as described by Mosmann and by Hansen et al.. Cell viability was determined by adding MTT to the cell cultures to reach a final concentration of 500 μg mL^−1. Following one h incubation at 37 °C, the dark purple crystals formed by viable cells were dissolved by adding to the wells an equal volume of the extraction buffer containing 20% sodium dodecyl sulfate and 50% N,N-dimethylformamide, pH 4.7. After overnight incubation at 37 °C, 100 μL aliquots of MTT solutions were transferred to a 96-well plate, and a FLUOstar Omega platereader (BMG Labtech, Offenburg, Germany) was used to measure the optical densities at 570 nm. Cell viability in various samples was calculated as percent of the optical density value obtained with cells incubated in fresh cell culture medium only.
(§2) The anti-neurotoxic activity of the compounds was evaluated using a method described previously. Human monocytic THP-1 cells were transferred to 24-well plates in 800 µL aliquots of 5 × 10^5 cells mL^−1 per well. The cells were pre-incubated with varying concentrations of pyrazole derivatives or their DMSO vehicle solution for 15 min before stimulation with a combination of lipopolysaccharide (LPS, 0.5 µg mL^−1) and human interferon-γ (IFN-γ, 150 U mL^−1). […] After 24 h incubation, 400 µL of supernatants from THP-1 cells was transferred to SH-SY5Y cells (seeded 24 h earlier in 24-well plates; 400 µL of 2 × 10^5 cells mL^−1). The viability of THP-1 cells was measured by the MTT assay immediately after the transfer of the supernatants. The effects of THP-1 cell supernatants on SH-SY5Y neuronal cell viability were measured by the MTT assay after 72 h incubation. […] The concentrations of stimuli and incubation times of THP-1 cells with the stimuli were selected in preliminary experiments so that significant partial killing of SH-SY5Y cells was achieved (20–30% viable cells left), which could be a result of the combined action of cytotoxins secreted by THP-1 cells and depletion of nutrients from the cell culture medium by the stimulated THP-1 cells.
(Formazan colour is commonly taken as a measure of viable cells.)

Data set [2] deals with immune-stimulated human THP-1 monocytic cells (toxicity toward SH-SY5Y neuronal cells). Nature of the data set: Anti-neurotoxic activity: supernatants of compound-treated stimulated THP-1 cells transferred to SH-SY5Y cells (MTT assay). The data set is classed as cell-based. Conditions: for IC50: Homo sapiens, estimated from Figure 4, read-out: IC50 for reducing toxic effect of stimulated THP-1 supernatants on SH-SY5Y cells. The protocol:
as §1, §2

In data set [3] the test system is SH-SY5Y cells. As to the kind of experiment: Neuroprotective activity: compounds added directly to SH-SY5Y cells with stimulated THP-1 supernatants (MTT assay). The data set is classed as cell-based, human. The protocol:
as §1
SH-SY5Y cells were seeded into 24-well plates (400 µL at 2 × 10^5 cells mL^−1). After 24 h incubation, the cell culture medium was replaced with 400 µL of supernatants from THP-1 cells that had been stimulated for 24 h with LPS plus IFN-γ, as described in 2.6. Varying concentrations of the compounds or the DMSO vehicle solution were added directly to SH-SY5Y cells at the time of the supernatant transfer. The viability of SH-SY5Y cells was measured by the MTT assay 72 h later.

Data set [4] relates to human PC-3 prostate cancer cells. As to the kind of experiment: Cytotoxicity of pyrazole derivatives to PC-3 cells (MTT assay). The data set is classed as cell-based. Conditions: 100 μM (highest concentration tested), 48 h. Here is the method: as §1
PC-3 prostate cancer cells were transferred to 24-well plates in 500 µL aliquots of 1.5 × 10^5 cells mL^−1 per well. Varying concentrations of the pyrazole derivatives or the 0.5% DMSO vehicle were added to the cells. After 48 h incubation, cell viability was measured by using the MTT assay.

Data set [5] deals with SH-SY5Y cells. More on the design: method as in PMID 20609589. Conditions: earlier report; cited from earlier work.

Consider 8 compounds from publication PMC6679371, “Synthesis and Evaluation of Novel Pyrazole Ethandiamide Compounds as Inhibitors of Human THP-1 Monocytic Cell Neurotoxicity” (Cells, 2019).

Entries after “also recorded” stand apart in the source; their conditions may differ. A value given as a limit tells only on which side of the number the result lay.

In turn, `N#Cc1cnn(-c2ccccc2)c1NC(=O)C(=O)N(C1CCCCC1)C1CCCCC1` [2b] gave a melting point of 188 to 190 °C. The “toxicity to stimulated THP-1 cells (cell viability, MTT)” value (“toxicity to stimulated THP-1 cells” below) in data set [1] was “None of these six derivatives were toxic”. Besides, the IC50 in data set [2] was 10 to 50 µM.

In turn, `N#Cc1cnn(-c2ccccc2)c1NC(=O)C(=O)NCCCCCCCCCN` [2a] returned a melting point of 108 to 110 °C. In addition, the “toxicity to stimulated THP-1 cells” value in data set [1] is “None of these six derivatives were toxic”. In addition, in data set [2], the concentration for half-maximal inhibition (IC50) is 50 to 100 µM. Also, the “concentrations at which the protective effect was statistically significant” value in data set [2] (tested 1–100 μM, Dunnett's post-hoc test) came to 100 µM.

`N#Cc1cnn(-c2ccccc2)c1NC(=O)C(=O)Nc1ccc(N)cc1` [2e]: the melting point fell in the range of 258 to 261 °C. Moreover, the “toxicity to stimulated THP-1 cells” value in data set [1] is on record as “None of these six derivatives were toxic”. In addition, in data set [2], the IC50 is 10 to 50 µM.

In turn, `CN(C)C(=O)C(=O)Nc1c(C#N)cnn1-c1ccccc1` [2c] displayed a melting point of 250 to 253 °C. For the same compound, the “toxicity to stimulated THP-1 cells” value in data set [1] is “None of these six derivatives were toxic”. Besides, the IC50 in data set [2] was 10 to 50 µM.

Take `C=CCNC(=O)C(=O)Nc1c(C#N)cnn1-c1ccccc1` [2d]: the melting point was 108 to 110 °C. In addition, in data set [1], the “toxicity to stimulated THP-1 cells” value was “None of these six derivatives were toxic”. The “change in SH-SY5Y cell viability, compound added directly” value in data set [3] (100 μM, 72 h) is given as “small but significant decrease in SH-SY5Y cell viability”. In addition, in data set [4], the “change in PC-3 cell viability” value is “small yet significant increase in cell viability”. Moreover, in data set [2] (100 μM, supernatant transfer from treated THP-1 cells, 72 h), the “change in SH-SY5Y cell viability” value is reported as “small but significant decrease in SH-SY5Y cell viability; also recorded: small yet significant reduction of SH-SY5Y cell viability”. Moreover, the “protective (anti-neurotoxic) effect” value in data set [2] (1–100 μM) is on record as “no protective effect”.

As to `N#Cc1cnn(-c2ccccc2)c1NC(=O)C(=O)Nc1ccc(O)cc1` [2f], the melting point lay within 237 to 239 °C.

Regarding `CN(C)CCOC(=O)C(=O)Nc1c(C#N)cnn1-c1ccccc1` [compound 3], the melting point fell in the range of 139 to 141 °C. In addition, the “toxicity to stimulated THP-1 cells” value in data set [1] is “None of these six derivatives were toxic”. For the same compound, in data set [3] (1–100 μM, added at the time of supernatant transfer), the “direct neuroprotective effect on SH-SY5Y cells” value is recorded as “neuroprotective effect”. In data set [3] (Homo sapiens, SH-SY5Y, 100 μM, 72 h, without compound 20–30%), this compound showed a viability at 100 µM greater than 40%. Further, the IC50 in data set [2] was 10 to 50 µM.

As for `N#Cc1cnn(-c2ccccc2)c1NC(=O)C(=O)Nc1c(C#N)cnn1-c1ccccc1` [compound 1], the direct neuroprotective activity result in data set [5] is reported as “showed this effect”.

The term melting point denotes the temperature of the solid-liquid transition. As a reminder, the IC50 is the concentration that gives 50% inhibition. The viability is a read-out of living cells in per cent, often relative to untreated cells. Low values mean a greater loss of cells, high ones better survival.
